# Test results reported in ChEMBL document CHEMBL1201861, “Genomics of Drug Sensitity in Cancer screening data, Wellcome Trust Sanger Institute”.
# Key:
# Test in all cases: cells
# [1] = test system: COLO-679; type: functional, cell-based; conditions: Homo sapiens
# Description: SANGER: Inhibition of human COLO-679 cell growth in a cell viability assay.
# [2] = test system: OAW-42; type: functional, cell-based; conditions: Homo sapiens;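 also: growth inhibition of OAW-42 cells, read out with a cell viability assay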
# Description: SANGER: Inhibition of human OAW-42 cell growth in a cell viability assay.
# [3] = test system: MKN-7; type: functional, cell-based; conditions: Homo sapiens;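 also: growth inhibition of MKN-7 cells, read out with a cell viability assay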
# Description: SANGER: Inhibition of human MKN7 cell growth in a cell viability assay.
# [4] = test system: NCI-H1792; type: functional, cell-based; conditions: Homo sapiens;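 also: growth inhibition of human NCI-H1792 cells, read out as cell viability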
# Description: SANGER: Inhibition of human NCI-H1792 cell growth in a cell viability assay.
# [5] = test system: MC-IXC; type: functional, cell-based; conditions: Homo sapiens;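 also: growth inhibition of MC-IXC cells, read out with a cell viability assay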
# Description: SANGER: Inhibition of human MC-IXC cell growth in a cell viability assay.
# [6] = test system: SF-295; type: functional, cell-based; conditions: Homo sapiens;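 also: growth inhibition of SF-295 cells, read out with a cell viability assay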
# Description: SANGER: Inhibition of human SF295 cell growth in a cell viability assay.
# [7] = test system: C3A; type: functional, cell-based; conditions: Homo sapiens;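 also: growth inhibition of C3A human cells, quantified with a cell viability readout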
# Description: SANGER: Inhibition of human C3A cell growth in a cell viability assay.
# [8] = test system: RT-112; type: functional, cell-based; conditions: Homo sapiens
# Description: SANGER: Inhibition of human RT-112 cell growth in a cell viability assay.
# [9] = test system: KYSE-410; type: functional, cell-based; conditions: Homo sapiens;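 also: growth inhibition of KYSE-410 cells, measured through a cell viability readout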
# Description: SANGER: Inhibition of human KYSE-410 cell growth in a cell viability assay.
# [10] = test system: HO-1-N-1; type: functional, cell-based; conditions: Homo sapiens;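 also: growth inhibition of human HO-1-N-1 cells, read out with a cell viability assay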
# Description: SANGER: Inhibition of human HO-1-N-1 cell growth in a cell viability assay.
# [11] = test system: 8305C; type: functional, cell-based; conditions: Homo sapiens
# Description: SANGER: Inhibition of human 8305C cell growth in a cell viability assay.
# [12] = test system: CAKI-1; type: functional, cell-based; conditions: Homo sapiens;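 also: growth inhibition of CAKI-1 cells, measured by a cell viability assay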
# Description: SANGER: Inhibition of human CAKI-1 cell growth in a cell viability assay.
# [13] = test system: BCPAP; type: functional, cell-based; conditions: Homo sapiens;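 also: growth inhibition of BCPAP cells, read out in a cell viability assay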
# Description: SANGER: Inhibition of human BCPAP cell growth in a cell viability assay.
# [14] = test system: CAL-27; type: functional, cell-based; conditions: Homo sapiens;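 also: Viability-based readout, IC50 reflecting inhibition of CAL-27 cell growth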
# Description: SANGER: Inhibition of human CAL-27 cell growth in a cell viability assay.
# [15] = test system: DU-145; type: functional, cell-based; conditions: Homo sapiens
# Description: SANGER: Inhibition of human DU-145 cell growth in a cell viability assay.
# [16] = test system: WM-115; type: functional, cell-based; conditions: Homo sapiens
# Description: SANGER: Inhibition of human WM-115 cell growth in a cell viability assay.
# [17] = test system: PANC-03-27; type: functional, cell-based; conditions: Homo sapiens
# Description: SANGER: Inhibition of human PANC-03-27 cell growth in a cell viability assay.
# [18] = test system: PA-1; type: functional, cell-based; conditions: Homo sapiens;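 also: IC50 for suppression of PA-1 cell proliferation, determined with a cell viability read-out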
# Description: SANGER: Inhibition of human PA-1 cell growth in a cell viability assay.
# [19] = test system: CAL-62; type: functional, cell-based; conditions: Homo sapiens;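 also: growth inhibition of CAL-62 cells, read out with a cell viability assay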
# Description: SANGER: Inhibition of human CAL-62 cell growth in a cell viability assay.
# [20] = test system: HCT-116; type: functional, cell-based; conditions: Homo sapiens
# Description: SANGER: Inhibition of human HCT-116 cell growth in a cell viability assay.
# [21] = test system: T47D; type: functional, cell-based; conditions: Homo sapiens;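 also: growth inhibition of human T47D cells, measured with a cell viability assay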
# Description: SANGER: Inhibition of human T47D cell growth in a cell viability assay.
# [22] = test system: MDA-MB-175-VII; type: functional, cell-based; conditions: Homo sapiens
# [23] = test system: MDA-MB-231; type: functional, cell-based; conditions: Homo sapiens
# Description: SANGER: Inhibition of human MDA-MB-231 cell growth in a cell viability assay.
# [24] = test system: ASPC1; type: functional, cell-based; conditions: Homo sapiens;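 also: growth inhibition of AsPC-1 cells, read out with a cell viability assay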
# Description: SANGER: Inhibition of human AsPC-1 cell growth in a cell viability assay.
# [25] = test system: COR-L105; type: functional, cell-based; conditions: Homo sapiens;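 also: cell growth inhibition determined with a viability assay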
# Description: SANGER: Inhibition of human COR-L105 cell growth in a cell viability assay.
# [26] = test system: KYSE-520 cell line; type: functional, cell-based; conditions: Homo sapiens;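 also: growth inhibition of human KYSE-520 cells, read out with a viability assay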
# Description: SANGER: Inhibition of human KYSE-520 cell growth in a cell viability assay.
# [27] = test system: T-24; type: functional, cell-based; conditions: Homo sapiens;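 also: growth inhibition of T-24 cells, read out with a cell viability assay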
# Description: SANGER: Inhibition of human T-24 cell growth in a cell viability assay.
# [28] = test system: M14; type: functional, cell-based; conditions: Homo sapiens;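 also: growth inhibition of M14 cells, read out with a cell viability assay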
# Description: SANGER: Inhibition of human M14 cell growth in a cell viability assay.
# [29] = test system: NCI-H2405; type: functional, cell-based; conditions: Homo sapiens;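 also: growth inhibition of the human cell line, read out with a cell viability assay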
# Description: SANGER: Inhibition of human NCI-H2405 cell growth in a cell viability assay.
# [30] = test system: A2058; type: functional, cell-based; conditions: Homo sapiens;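 also: reduction of A2058 cell growth, read out with a viability assay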
# Description: SANGER: Inhibition of human A2058 cell growth in a cell viability assay.
# [31] = test system: COLO-741; type: functional, cell-based; conditions: Homo sapiens
# Description: SANGER: Inhibition of human COLO-741 cell growth in a cell viability assay.
# [32] = test system: BHT-101; type: functional, cell-based; conditions: Homo sapiens
# Description: SANGER: Inhibition of human BHT-101 cell growth in a cell viability assay.
# [33] = test system: SNU-449; type: functional, cell-based; conditions: Homo sapiens
# Description: SANGER: Inhibition of human SNU-449 cell growth in a cell viability assay.
# [34] = test system: Calu-3; type: functional, cell-based; conditions: Homo sapiens;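 also: growth inhibition of human Calu-3 cells, determined with a cell viability assay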
# Description: SANGER: Inhibition of human Calu-3 cell growth in a cell viability assay.
# [35] = test system: CP66-MEL; type: functional, cell-based; conditions: Homo sapiens;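 also: growth inhibition of CP66-MEL cells determined in a cell viability assay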
# Description: SANGER: Inhibition of human CP66-MEL cell growth in a cell viability assay.
# [36] = test system: HCC1937; type: functional, cell-based; conditions: Homo sapiens;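 also: growth inhibition measured with a cell viability read-out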
# Description: SANGER: Inhibition of human HCC1937 cell growth in a cell viability assay.
# [37] = test system: HuP-T4; type: functional, cell-based; conditions: Homo sapiens;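 also: cell viability assay measuring how much HuP-T4 cell growth is inhibited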
# Description: SANGER: Inhibition of human HuP-T4 cell growth in a cell viability assay.
# [38] = test system: OE33; type: functional, cell-based; conditions: Homo sapiens;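 also: growth inhibition of human OE33 cells, measured by a cell viability assay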
# Description: SANGER: Inhibition of human OE33 cell growth in a cell viability assay.
# [39] = test system: OVCAR-8; type: functional, cell-based; conditions: Homo sapiens;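 also: growth inhibition of human OVCAR-8 cells, read out by a cell viability assay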
# Description: SANGER: Inhibition of human OVCAR-8 cell growth in a cell viability assay.
# [40] = test system: RMG-I; type: functional, cell-based; conditions: Homo sapiens;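 also: growth inhibition of human RMG-I cells, read out with a cell viability assay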
# Description: SANGER: Inhibition of human RMG-I cell growth in a cell viability assay.
# [41] = test system: PFSK-1; type: functional, cell-based; conditions: Homo sapiens;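 also: cell viability assay measuring how strongly compounds suppress growth of human PFSK-1 cells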
# Description: SANGER: Inhibition of human PFSK-1 cell growth in a cell viability assay.
# [42] = test system: NB12; type: functional, cell-based; conditions: Homo sapiens;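 also: growth inhibition of human NB12 cells, read out by a cell viability assay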
# Description: SANGER: Inhibition of human NB12 cell growth in a cell viability assay.
# [43] = test system: A-427; type: functional, cell-based; conditions: Homo sapiens;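 also: growth inhibition of human A-427 cells, read out by a cell viability assay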
# Description: SANGER: Inhibition of human A427 cell growth in a cell viability assay.
# [44] = test system: NB17; type: functional, cell-based, Homo sapiens; conditions: Homo sapiens, NB17;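 also: growth inhibition of NB17 cells, read out with a cell viability assay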
# Description: SANGER: Inhibition of human NB17 cell growth in a cell viability assay.
structure (smiles),measurement,setting,value
CN(NC(=O)CC(=O)NN(C)C(=S)c1ccccc1)C(=S)c1ccccc1 [ELESCLOMOL],IC50,[1],0.0141 µM
same,IC50,[2],0.0816 µM
same,IC50,[3],0.061 µM
same,IC50,[4],> 0.2 µM
same,IC50,[5],0.00717 µM
same,IC50,[6],0.0092 µM
same,IC50,[7],> 0.2 µM
same,IC50,[8],0.0142 µM
same,IC50,[9],0.0197 µM
same,IC50,[10],0.0245 µM
same,IC50,[11],0.192 µM
same,IC50,[12],0.0241 µM
same,IC50,[13],0.00134 µM
same,IC50,[14],0.0334 µM
same,IC50,[15],> 0.2 µM
same,IC50,[16],0.034 µM
same,IC50,[17],0.0399 µM
same,IC50,[18],0.00884 µM
same,IC50,[19],0.0552 µM
same,IC50,[20],0.04 µM
same,IC50,[21],0.0168 µM
same,IC50,[22],> 0.2 µM
same,IC50,[23],0.019 µM
same,IC50,[24],0.0377 µM
same,IC50,[25],0.00676 µM
same,IC50,[26],0.104 µM
same,IC50,[27],0.00155 µM
same,IC50,[28],0.122 µM
same,IC50,[29],0.051 µM
same,IC50,[30],0.0139 µM
same,IC50,[31],0.176 µM
same,IC50,[32],0.00372 µM
same,IC50,[33],0.0142 µM
same,IC50,[34],> 0.2 µM
same,IC50,[35],0.0551 µM
same,IC50,[36],0.0352 µM
same,IC50,[37],0.0207 µM
same,IC50,[38],> 0.2 µM
same,IC50,[39],0.00399 µM
same,IC50,[40],> 0.2 µM
same,IC50,[41],0.0127 µM
same,IC50,[42],0.048 µM
same,IC50,[43],0.00607 µM
same,IC50,[44],0.00894 µM
Cc1ccc(-n2nc(C(C)(C)C)cc2NC(=O)Nc2ccc(OCCN3CCOCC3)c3ccccc23)cc1 [DORAMAPIMOD],IC50,[1],> 10 µM
same,IC50,[2],> 10 µM
same,IC50,[3],> 10 µM
same,IC50,[4],> 10 µM
same,IC50,[5],> 10 µM
same,IC50,[6],> 10 µM
same,IC50,[7],> 10 µM
same,IC50,[8],> 10 µM
same,IC50,[9],> 10 µM
same,IC50,[10],> 10 µM
same,IC50,[11],> 10 µM
same,IC50,[12],> 10 µM
same,IC50,[13],> 10 µM
same,IC50,[14],> 10 µM
same,IC50,[15],3.94 µM
same,IC50,[16],> 10 µM
same,IC50,[17],> 10 µM
same,IC50,[18],> 10 µM
same,IC50,[19],> 10 µM
same,IC50,[20],> 10 µM
same,IC50,[21],> 10 µM
same,IC50,[22],> 10 µM
same,IC50,[23],> 10 µM
same,IC50,[24],> 10 µM
same,IC50,[25],> 10 µM
same,IC50,[26],> 10 µM
same,IC50,[27],8.41 µM
same,IC50,[28],> 10 µM
same,IC50,[29],> 10 µM
same,IC50,[30],> 10 µM
same,IC50,[31],> 10 µM
same,IC50,[32],> 10 µM
same,IC50,[33],> 10 µM
same,IC50,[34],> 10 µM
same,IC50,[35],> 10 µM
same,IC50,[36],> 10 µM
same,IC50,[37],> 10 µM
same,IC50,[38],> 10 µM
same,IC50,[39],> 10 µM
same,IC50,[40],> 10 µM
same,IC50,[41],> 10 µM
same,IC50,[42],> 10 µM
same,IC50,[43],> 10 µM
same,IC50,[44],> 10 µM
CN(C)CCOc1ccc(-c2nc(-c3ccncc3)c(-c3ccc4c(c3)CC/C4=N\O)[nH]2)cc1 [SB590885],IC50,[1],0.386 µM
same,IC50,[2],> 5 µM
same,IC50,[3],> 5 µM
same,IC50,[4],> 5 µM
same,IC50,[5],> 5 µM
same,IC50,[6],> 5 µM
same,IC50,[7],> 5 µM
same,IC50,[8],> 5 µM
same,IC50,[9],> 5 µM
same,IC50,[10],> 5 µM
same,IC50,[11],> 5 µM
same,IC50,[12],> 5 µM
same,IC50,[13],> 5 µM
same,IC50,[14],> 5 µM
same,IC50,[15],> 5 µM
same,IC50,[16],0.85 µM
same,IC50,[17],> 5 µM
same,IC50,[18],> 5 µM
same,IC50,[19],> 5 µM
same,IC50,[20],> 5 µM
same,IC50,[21],> 5 µM
same,IC50,[22],> 5 µM
same,IC50,[23],> 5 µM
same,IC50,[24],> 5 µM
same,IC50,[25],> 5 µM
same,IC50,[26],> 5 µM
same,IC50,[27],> 5 µM
same,IC50,[28],0.0808 µM
same,IC50,[29],> 5 µM
same,IC50,[30],> 5 µM
same,IC50,[31],> 5 µM
same,IC50,[32],1.63 µM
same,IC50,[33],> 5 µM
same,IC50,[34],> 5 µM
same,IC50,[36],> 5 µM
same,IC50,[37],> 5 µM
same,IC50,[38],> 5 µM
same,IC50,[39],> 5 µM
same,IC50,[40],> 5 µM
same,IC50,[41],> 5 µM
same,IC50,[42],> 5 µM
same,IC50,[43],> 5 µM
same,IC50,[44],> 5 µM
CS(=O)(=O)N1CCN(Cc2cc3nc(-c4cccc5[nH]ncc45)nc(N4CCOCC4)c3s2)CC1 [PICTILISIB],IC50,[1],> 4 µM
same,IC50,[2],0.872 µM
same,IC50,[3],2.71 µM
same,IC50,[4],> 4 µM
same,IC50,[5],> 4 µM
same,IC50,[6],2.32 µM
same,IC50,[7],> 4 µM
same,IC50,[8],> 4 µM
same,IC50,[9],> 4 µM
same,IC50,[10],0.659 µM
same,IC50,[11],> 4 µM
same,IC50,[12],> 4 µM
same,IC50,[13],> 4 µM
same,IC50,[14],> 4 µM
same,IC50,[15],> 4 µM
same,IC50,[16],1.07 µM
same,IC50,[17],1.51 µM
same,IC50,[18],0.532 µM
same,IC50,[19],> 4 µM
same,IC50,[20],> 4 µM
same,IC50,[21],0.598 µM
same,IC50,[22],0.353 µM
same,IC50,[23],> 4 µM
same,IC50,[24],> 4 µM
same,IC50,[25],> 4 µM
same,IC50,[26],> 4 µM
same,IC50,[27],> 4 µM
same,IC50,[28],3.31 µM
same,IC50,[29],> 4 µM
same,IC50,[30],> 4 µM
same,IC50,[31],> 4 µM
same,IC50,[32],0.545 µM
same,IC50,[33],2.57 µM
same,IC50,[34],3.71 µM
same,IC50,[36],> 4 µM
same,IC50,[37],1.61 µM
same,IC50,[38],> 4 µM
same,IC50,[39],> 4 µM
same,IC50,[40],> 4 µM
same,IC50,[41],1.94 µM
same,IC50,[42],2.85 µM
same,IC50,[43],> 4 µM
same,IC50,[44],> 4 µM
